In patent publication US10961202B2, “Bis-benzimidazole compounds and methods of using the same” (THE SCRIPPS RESEARCH INSTITUTE, priority 2017, dated 2021):

What was measured:
[1] = system: MBNL1 exon 5 inclusion in DM1 myotubes; test: Myotube splicing rescue assay (MBNL1 exon 5 inclusion); format: cell-based, human; settings: 48-hour incubation
r(CUG)12-MBNL1 complex = test: Inhibition of the r(CUG)12-MBNL1 complex measured by TR-FRET; format: biochemical; settings: Table M; 80 nM RNA, 60 nM MBNL1-His6

IC50 (r(CUG)12-MBNL1 complex) [µM]	SMILES	MBNL1 % splicing rescue at 10 μM [1] [%]	MBNL1 % splicing rescue at 1 μM [1] [%]
7.2	CN(C)CCCOc1ccc2nc(-c3ccc(-c4nc5ccc(OCCCN(C)C)cc5[nH]4)c(OCCO)c3)[nH]c2c1 [Compound 259, 2-(2,5-bis(6-(3-(dimethylamino)propoxy)-1H-benzo[d]imidazol-2-yl)phenoxy)ethanol]	−12.7	–
6.03	CN(C)CCCOc1ccc2nc(-c3ccc(-c4nc5ccc(C(=O)NCCNC(=N)N)cc5[nH]4)cc3)[nH]c2c1 [Compound 264, 2-(4-(6-(3-(dimethylamino)propoxy)-1H-benzo[d]imidazol-2-yl)phenyl)-N-(2-guanidinoethyl)-1H-benzo[d]imidazole-6-carboxamide]	−23.5	–
16.6	CN(C)CCCOc1ccc2nc(-c3ccc(-c4nc5ccc(OCCCN(C)C)cc5[nH]4)c(OCCN=[N+]=[N-])c3)[nH]c2c1 [Compound 265, 3,3′-((2,2′-(2-(2-azidoethoxy)-1,4-phenylene)bis(1H-benzo[d]imidazole-6,2-diyl))bis(oxy))bis(N,N-dimethylpropan-1-amine)]	84.3	–
10.7	CN(C)CCCOc1ccc2nc(-c3ccc(-c4nc5ccc(C(=O)OCCN(C)C)cc5[nH]4)cc3)[nH]c2c1 [Compound 266]	−13.1	–
10.9	CN(C)CCCOc1ccc2nc(-c3ccc(-c4nc5ccc(OCCCN(C)C)cc5[nH]4)c(OCCCl)c3)[nH]c2c1 [Compound 267, 3,3′-(((2-(2-chloroethoxy)-1,4-phenylene)bis(1H-benzo[d]imidazole-2,6-diyl))bis(oxy))bis(N,N-dimethylpropan-1-amine)]	1.8	–
9.6	CN(C)CCCOc1ccc2nc(-c3ccc(-c4nc5ccc(OCCCN(C)C)cc5[nH]4)c(C#N)c3)[nH]c2c1 [Compound 268, 2,5-bis(6-(3-(dimethylamino)propoxy)-1H-benzo[d]imidazol-2-yl)benzonitrile]	73.6	–
3.11	COc1cc(-c2nc3ccc(C(=O)OCCN(C)C)cc3[nH]2)c(OC)cc1-c1nc2ccc(C(=O)OCCN(C)C)cc2[nH]1 [Compound 269, bis(2-(dimethylamino)ethyl) 2,2′-(2,5-dimethoxy-1,4-phenylene)bis(1H-benzo[d]imidazole-6-carboxylate)]	55.6	–
5.81	CN(C)CCOC(=O)c1ccc2nc(-c3ccc(-c4nc5ccc(C(=O)OCCN(C)C)cc5[nH]4)c(F)c3)[nH]c2c1 [Compound 270, bis(2-(dimethylamino)ethyl) 2,2′-(2-fluoro-1,4-phenylene)bis(1H-benzo[d]imidazole-6-carboxylate)]	−19.5	–
6.1	CN(C)CCCOc1c(F)cc2nc(-c3ccc(-c4nc5cc(F)c(OCCCN(C)C)c(F)c5[nH]4)cc3)[nH]c2c1F [Compound 273]	−15.3	–
24.3	CN(C)CCNS(=O)(=O)c1ccc2nc(-c3ccc(-c4nc5ccc(S(=O)(=O)NCCN(C)C)cc5[nH]4)cc3)[nH]c2c1 [Compound 275, 2,2′-(1,4-phenylene)bis(N-(2-(dimethylamino)ethyl)-1H-benzo[d]imidazole-6-sulfonamide)]	−6.5	–
9.7	CN(C)CCCOc1ccc2nc(-c3ccc(-c4nc5ccc(OCCCN(C)C)cc5[nH]4)nc3)[nH]c2c1 [Compound 276, 3,3′-(2,2′-(pyridine-2,5-diyl)bis(3H-benzo[d]imidazole-5,2-diyl))bis(oxy)bis(N,N-dimethylpropan-1-amine)]	63.1	–
38.1	CN(C)CCCOc1ccc2nc(-c3cc(O)c(-c4nc5ccc(OCCCN(C)C)cc5[nH]4)cc3O)[nH]c2c1 [Compound 278]	48.2	79.7
11.1	COc1cc(-c2nc3ccc(OCCCN(C)C)cc3[nH]2)c(OC)cc1-c1nc2ccc(OCCCN(C)C)cc2[nH]1 [Compound 290]	97.2	–
9.7	N=C(N)CCCOc1ccc2nc(-c3ccc(-c4nc5ccc(OCCCC(=N)N)cc5[nH]4)cc3)[nH]c2c1 [Compound 297]	−4.4	–
5.3	CN(C)CCCOc1cc2[nH]c(-c3ccc(-c4nc5cc(F)c(OCCCN(C)C)cc5[nH]4)c(F)c3)nc2cc1F [Compound 301, (3-[[2-(4-[6-[3-(dimethylamino)propoxy]-5-fluoro-1H-1,3-benzodiazol-2-yl]-3-fluorophenyl)-5-fluoro-1H-1,3-benzodiazol-6-yl]oxy]propyl)dimethylamine]	19.4	–
28	COc1cc(-c2nc3ccc(SCCCN(C)C)cc3[nH]2)c(OC)cc1-c1nc2cc(SCCCN(C)C)ccc2[nH]1 [Compound 302, 3-((2-(4-(6-((3-(dimethylamino)propyl)thio)-1H-benzo[d]imidazol-2-yl)-2,5-dimethoxyphenyl)-1H-benzo[d]imidazol-5-yl)thio)-N,N-dimethylpropan-1-amine]	32.3	–
5.8	CN(C)CCCOc1cc2nc(-c3ccc(-c4nc5cc(Cl)c(OCCCN(C)C)cc5[nH]4)cc3)[nH]c2cc1Cl [Compound 304, (3-[[6-chloro-2-(4-[5-chloro-6-[3-(dimethylamino)propoxy]-1H-1,3-benzodiazol-2-yl]phenyl)-1H-1,3-benzodiazol-5-yl]oxy]propyl)dimethylamine]	−42.3	–
12.1	CN(C)CCCSc1ccc2nc(-c3ccc(-c4nc5ccc(SCCCN(C)C)cc5[nH]4)c4c3OCO4)[nH]c2c1 [Compound 306]	11.7	–
1.8	COc1cc(-c2nc3ccc(OCCCN(C)C)cc3[nH]2)c(O)cc1-c1nc2cc(OCCCN(C)C)ccc2[nH]1 [Compound 308]	−24.4	–
6.1	CN1CCC(COc2ccc3nc(-c4ccc(-c5nc6ccc(OCC7CCN(C)CC7)cc6[nH]5)c(F)c4)[nH]c3c2)CC1 [Compound 315]	88.4	–
20.7	CN(C)CCCOc1ccc2[nH]c(-c3ccc(-c4nc5cc(OCCCN(C)C)ccc5[nH]4)c4c3OCCO4)nc2c1 [Compound 316]	87.1	–
16.7	C#CCCCCN(C)CCNC(=O)CCCOc1ccc2[nH]c(-c3ccc(-c4nc5cc(OCCCN(C)C)ccc5[nH]4)cc3)nc2c1 [Compound 320]	88.2	–
14.2	CN1CCN(c2ccc(-c3nc4cc(-c5ccc6[nH]c(-c7ccc(N8CCN(C)CC8)cc7)nc6c5)ccc4[nH]3)cc2)CC1 [Compound 334]	–	73.1
8.03	CN1CCC(COc2ccc(-c3nc4cc(-c5ccc6[nH]c(-c7ccc(OCC8CCN(C)CC8)cc7)nc6c5)ccc4[nH]3)cc2)CC1 [Compound 336]	77.0	59.0
31.9	CN1CCN(Cc2ccc(-c3nc4cc(-c5ccc6[nH]c(-c7ccc(CN8CCN(C)CC8)cc7)nc6c5)ccc4[nH]3)cc2)CC1 [Compound 337]	73.3	57.2
4.56	CN1CCC(NC(=O)c2ccc(-c3nc4cc(-c5ccc6[nH]c(-c7ccc(C(=O)NC8CCN(C)CC8)cc7)nc6c5)ccc4[nH]3)cc2)CC1 [Compound 338]	−5.3	7.8
5.96	CN1CC[C@@H](NC(=O)c2ccc(-c3nc4cc(-c5ccc6[nH]c(-c7ccc(C(=O)N[C@@H]8CCN(C)C8)cc7)nc6c5)ccc4[nH]3)cc2)C1 [Compound 339]	1.8	−3.2
6.17	CN1CCC(CNC(=O)c2ccc(-c3nc4cc(-c5ccc6[nH]c(-c7ccc(C(=O)NCC8CCN(C)CC8)cc7)nc6c5)ccc4[nH]3)cc2)CC1 [Compound 340]	−0.4	−3.4
13.5	c1cc(-c2nc3cc(-c4ccc5[nH]c(-c6ccc(OCCN7CCCC7)cc6)nc5c4)ccc3[nH]2)ccc1OCCN1CCCC1 [Compound 347]	98.1	78.9
16.8	CN(C)CCCOc1ccc(-c2nc3cc(-c4ccc5[nH]c(-c6ccc(O)cc6)nc5c4)ccc3[nH]2)cc1 [Compound 348]	75.3	75.3

SMILES	IC50 (r(CUG)12-MBNL1 complex) [µM]	MBNL1 % splicing rescue at 10 μM [1] [%]	MBNL1 % splicing rescue at 1 μM [1] [%]
COc1cc(-c2nc3ccc(OCCCN(C)C)cc3[nH]2)ccc1-c1nc2ccc(OCCCN(C)C)cc2[nH]1 [Compound 293]	18.2	71.0	–
COc1cc(-c2nc3ccc(C(=O)NCCN(C)C)cc3[nH]2)c(OC)cc1-c1nc2cc(OCCCN(C)C)ccc2[nH]1 [Compound 298]	23.5	−41.8	–
COc1cc(-c2nc3ccc(C(=O)NCCCN(C)C)cc3[nH]2)c(OC)cc1-c1nc2cc(OCCCN(C)C)ccc2[nH]1 [Compound 299]	10.3	−34.9	–
CN(C)CCCOc1ccc2nc(-c3ccc(-c4nc5ccc(OCCCN(C)C)cc5[nH]4)c4c3OCO4)[nH]c2c1 [Compound 305]	7.6	58.8	–
COc1cc(-c2nc3ccc(OCCCN(C)C)cc3[nH]2)c(OCc2ccccc2)cc1-c1nc2cc(OCCCN(C)C)ccc2[nH]1 [Compound 307, 3-((2-(2-(benzyloxy)-4-(5-(3-(dimethylamino)propoxy)-1H-benzo[d]imidazol-2-yl)-5-methoxyphenyl)-1H-benzo[d]imidazol-6-yl)oxy)-N,N-dimethylpropan-1-amine]	15.8	18.1	–
CCOc1cc(-c2nc3cc(OCCCN(C)C)ccc3[nH]2)c(OCC)cc1-c1nc2cc(OCCCN(C)C)ccc2[nH]1 [Compound 314, (3-[[2-(4-[5-[3-(dimethylamino)propoxy]-1H-1,3-benzodiazol-2-yl]-2,5-diethoxyphenyl)-1H-1,3-benzodiazol-5-yl]oxy]propyl)dimethylamine]	19.8	22.5	–
